Measurements: ChEMBL document CHEMBL3727350, “Agents and methods for treating ischemic and other diseases” (2014)
Active and inactive are the calls of the source. The rule behind the calls is not given here.

molecular target: Transient receptor potential cation channel subfamily M member 7 (Mus musculus) (UniProt Q923J1); assay: Inhibition of Tet-induced Flag-tagged mouse TRPM7 expressed in HEK293 cells assessed as inhibition of channel-mediated cell death in presence of Mg2+ incubated for 24 to 48 hrs by propidium iodide uptake assay; assay type: cell-based; parameters: concentration or dose not given beside the values; conditions: not given
Sequence (Q923J1 whole entry): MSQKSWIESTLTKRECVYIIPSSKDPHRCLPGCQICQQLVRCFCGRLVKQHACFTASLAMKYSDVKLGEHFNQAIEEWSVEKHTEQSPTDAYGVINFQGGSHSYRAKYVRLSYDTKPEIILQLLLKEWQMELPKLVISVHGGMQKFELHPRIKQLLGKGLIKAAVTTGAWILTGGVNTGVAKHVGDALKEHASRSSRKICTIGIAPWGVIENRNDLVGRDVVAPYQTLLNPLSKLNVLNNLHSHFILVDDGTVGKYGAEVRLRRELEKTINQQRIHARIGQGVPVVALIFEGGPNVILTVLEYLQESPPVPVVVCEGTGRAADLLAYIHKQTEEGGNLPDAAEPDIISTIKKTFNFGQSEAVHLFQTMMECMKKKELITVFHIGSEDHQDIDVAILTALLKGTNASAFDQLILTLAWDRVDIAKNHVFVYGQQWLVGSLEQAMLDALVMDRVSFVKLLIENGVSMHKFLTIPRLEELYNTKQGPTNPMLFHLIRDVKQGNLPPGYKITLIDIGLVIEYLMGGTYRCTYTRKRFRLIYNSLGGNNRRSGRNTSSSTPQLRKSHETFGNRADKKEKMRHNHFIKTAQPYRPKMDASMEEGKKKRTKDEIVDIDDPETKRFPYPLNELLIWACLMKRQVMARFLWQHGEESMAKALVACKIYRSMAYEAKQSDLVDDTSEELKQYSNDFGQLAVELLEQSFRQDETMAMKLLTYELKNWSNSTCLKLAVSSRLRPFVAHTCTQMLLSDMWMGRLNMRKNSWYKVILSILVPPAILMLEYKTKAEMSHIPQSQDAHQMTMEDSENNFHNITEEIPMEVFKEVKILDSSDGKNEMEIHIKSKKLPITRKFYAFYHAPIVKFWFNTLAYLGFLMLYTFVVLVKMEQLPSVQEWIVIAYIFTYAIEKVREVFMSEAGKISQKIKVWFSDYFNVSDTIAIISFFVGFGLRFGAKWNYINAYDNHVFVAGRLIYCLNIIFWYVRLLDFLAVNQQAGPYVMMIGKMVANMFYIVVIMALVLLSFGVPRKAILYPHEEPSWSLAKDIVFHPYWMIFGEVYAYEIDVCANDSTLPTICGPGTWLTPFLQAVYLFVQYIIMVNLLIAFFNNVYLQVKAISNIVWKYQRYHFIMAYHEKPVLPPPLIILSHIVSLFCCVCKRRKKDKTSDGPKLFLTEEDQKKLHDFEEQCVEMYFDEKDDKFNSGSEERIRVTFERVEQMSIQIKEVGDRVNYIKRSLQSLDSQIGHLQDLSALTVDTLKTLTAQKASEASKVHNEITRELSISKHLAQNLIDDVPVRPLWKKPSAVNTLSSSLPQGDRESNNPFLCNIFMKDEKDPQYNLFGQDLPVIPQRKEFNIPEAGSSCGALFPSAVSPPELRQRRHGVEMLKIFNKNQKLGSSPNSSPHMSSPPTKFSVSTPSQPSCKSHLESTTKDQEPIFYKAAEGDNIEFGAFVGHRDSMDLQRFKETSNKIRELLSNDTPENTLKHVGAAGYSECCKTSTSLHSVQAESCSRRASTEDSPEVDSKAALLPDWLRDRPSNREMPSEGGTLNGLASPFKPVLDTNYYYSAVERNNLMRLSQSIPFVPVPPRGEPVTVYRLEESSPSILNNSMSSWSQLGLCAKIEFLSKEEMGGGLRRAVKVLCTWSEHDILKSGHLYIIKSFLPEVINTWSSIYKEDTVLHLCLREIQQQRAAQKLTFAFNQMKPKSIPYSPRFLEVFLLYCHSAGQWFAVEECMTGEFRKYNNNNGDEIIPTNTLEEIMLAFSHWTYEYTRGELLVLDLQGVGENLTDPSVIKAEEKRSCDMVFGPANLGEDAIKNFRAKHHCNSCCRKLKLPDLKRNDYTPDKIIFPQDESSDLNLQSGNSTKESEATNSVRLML

Row | SMILES | inhibition
1 | O=C1C(c2ccccc2)=C(O)C2C=CC=C3c4ccccc4N1C32 (stereo not drawn) | Active
2 | Cc1cc(C2CCCCC2)n(O)c(=O)c1 | Active
3 | C[C@H]1O[C@@H](O[C@H]2[C@@H](O)C[C@H](O[C@H]3[C@@H](O)C[C@H](O[C@H]4CC[C@@]5(C)[C@H](CC[C@@H]6[C@@H]5C[C@@H](O)[C@]5(C)[C@@H](C7=CC(=O)OC7)CC[C@]65O)C4)O[C@@H]3C)O[C@@H]2C)C[C@H](O)[C@@H]1O | Dose-dependent effect

same assay, conditions: concentration not given here

Row | SMILES | inhibition [%]
4 | O=C(Nc1ccc(Cl)cc1)Nc1ccccc1Oc1ccccc1 | 50
5 | O=C1/C(=C\c2cccs2)C(c2ccccc2)Oc2ccccc21 (stereo not drawn) | < 30
6 | O=C(/C(=N/Nc1ccc([N+](=O)[O-])cc1)C(=O)C(F)(F)F)c1cccs1 | 40
7 | Fc1ccc(C2CN3C(=N2)C=Cc2ccccc23)cc1 (stereo not drawn) | < 30
8 | CC(=O)Nc1ccc(S(=O)(=O)Nc2ccccc2C#N)cc1 | < 30
9 | O=C(Nc1ccc(N2CCC(C(F)(F)F)CC2)nc1)c1ccc(OC(F)(F)F)cc1 | < 30
10 | CC(C)c1ccc(NC(=O)c2c(-c3ccccc3)nnc3ccccc23)cc1 | < 30
11 | Brc1cn[nH]c1/C=N/Nc1nc(-c2ccccc2)cs1 | 50
12 | Cc1onc(-c2c(Cl)cccc2Cl)c1C(=O)Oc1ccccc1 | < 30
13 | COc1cccc(NC(=O)Nc2nnc(C3CC3)s2)c1 | < 30
14 | CCOC(=O)c1c(C)n(-c2ccccc2)c2ccc(OC(=O)C(c3ccccc3)C3CCCC3)cc12 (stereo not drawn) | 30
15 | Cc1nn(Cc2nc(-c3ccc(Cl)cc3)cs2)c(C)c1Br | 40
16 | CCCCCc1c(COC)c2ccc(O)cc2oc1=O | 50
17 | O=[N+]([O-])c1cccc(-c2ccc(/C=N/NC(=S)Nc3cccc(F)c3)o2)c1 | 30
18 | NC(=O)C1CCN(CCS(=O)(=O)c2ccccc2)CC1 | 30
19 | CN(C(=O)c1cnc(Oc2ccc(Cl)cc2)cc1C(F)(F)F)c1ccc(Cl)c(Cl)c1 | 60
20 | FC(F)(F)c1cccc(OCc2ccc(-c3ncns3)cc2)c1 | 50
21 | C#CCOC(=O)NC(=O)c1c(-c2ccc(Cl)cc2)n[nH]c1SC | < 30
22 | Cc1ccc(C(=O)Nc2cccnc2Oc2ccc(C(C)(C)C)cc2)cc1C | 60
23 | CN(C)c1cccc(N(C)C)c1CNC(=O)c1ccc(Cl)cc1 | 80
24 | CS/C(=N/C(C)(C)C)Nc1ccccc1Cl | < 30
25 | CCOC(=O)c1c(C)csc1NC(=O)CSc1ccc(Cl)cc1 | 50
26 | C/C(=N\Nc1c(C)cccc1Cl)c1ccc(Oc2ncc([N+](=O)[O-])s2)cc1 | < 30
27 | Cc1ccc(-c2n[nH]cc2Sc2ccc(C(F)(F)F)cn2)cc1 | < 30
28 | CCC1(c2cccc(OC)c2)CCCC(=O)NC1 (stereo not drawn) | < 30
29 | CC(=O)Nc1ccc(S(=O)(=O)Nc2ccccc2Oc2ccc(Cl)cc2Cl)cc1 | 80
30 | O=C(Nc1ccc(CN2CCS(=O)(=O)CC2)cc1)c1ccc(C(F)(F)F)cc1 | 40

Row | SMILES | inhibition [%]
31 | N#C/C(=N\Nc1ccc(Cl)cc1)C(N)=S | 60
32 | Cc1onc(-c2c(Cl)cccc2Cl)c1C(=O)Nc1cccc2nsnc12 | 30
33 | CC1CCN(CC(=O)Nc2ccc(Cl)cc2C(=O)c2ccccc2Cl)CC1 | 70
34 | COc1ccccc1N1CCN(Cc2c[nH]nc2-c2ccccc2)CC1 | 80
35 | CSc1nccc(-c2ccc(S(=O)(=O)n3nc(C)c(Br)c3C)s2)n1 | < 30
36 | Clc1cc(Cl)c(N/N=C/c2cc(C#Cc3ccccc3)cs2)c(Cl)c1 | 50
37 | CC(C)(C)c1cc2nc(C(F)(F)F)cc(N3CCN(S(=O)(=O)c4ccccc4)CC3)n2n1 | < 30
38 | CCOC(=O)CCc1cc(/N=C/c2cc(Cl)cc(Cl)c2O)c(O)c(/N=C/c2cc(Cl)cc(Cl)c2O)c1 | 50
39 | CCOC(=O)c1nn(-c2cccc(Cl)c2)cc(Sc2ccc(Cl)cc2)c1=O | 40
40 | CC(C)(C)[C@H](CO)/N=C/c1cccc(/C=N/[C@H](CO)C(C)(C)C)n1 | < 30
41 | CCOC(=O)C(=CNc1cc(OC)cc(C(F)(F)F)c1)C(=O)OCC | 70
42 | O=C(c1cc(Br)cc2c1OCC2)N1CCOCC1 | < 30
43 | O=[N+]([O-])c1ccc(Nc2cccc(F)c2)c2nonc12 | 40
44 | O=C1/C(=C\c2ccc(F)cc2)Sc2ccccc21 | < 30
45 | Clc1ccc(-c2noc(-c3sccc3Cl)n2)cc1 | 60
46 | Cc1cc(-c2nnc(C(F)(F)F)o2)ccc1NC(=S)Nc1ccc(Cl)cc1Cl | 70
47 | CC[n+]1c(/C=C/c2ccc(OC)cc2)ccc2ccccc21 | < 30
48 | COc1ccc2c(c1)CCC1SC(NC(=O)c3ccco3)=NC21 (stereo not drawn) | < 30
49 | Nc1nc(-c2ccc(-c3ccccc3)cc2)cs1 | 40
50 | N#CC(C#N)=CNc1cc(C(F)(F)F)ccc1N1CCCC1 | 40
51 | COc1ccccc1C1CCN(Cc2c[nH]nc2-c2ccccc2)CC1 | 80
52 | Cc1cc(C(=O)Nc2ccc(C(C)(C)C)cc2)nn1Cc1c(Cl)cccc1Cl | 70
53 | CN1CCN(NC(NC(=O)c2cccnc2)(C(F)(F)F)C(F)(F)F)CC1 | < 30
54 | CCOC(=O)c1cc2c(NC(=O)c3ccc(Cl)cc3)c(C(=O)OCC)sc2nc1C(F)(F)F | < 30
55 | Cc1onc(-c2c(Cl)cccc2Cl)c1C(=O)NCCc1csc2ccccc12 | < 30
56 | Cc1ccc(Cn2nc(C(=O)O)cc2C)cc1 | < 30
57 | CC(C)N(Cc1ccc(N(C)C)cc1)C(=O)c1sc2ccccc2c1Cl | 50

Row | SMILES | inhibition [%]
58 | CCOC(=O)c1ccc2c(c1)CC/C(=C\c1cccc(C(F)(F)F)c1)C2=O | < 30
59 | CSc1scc2c1-c1n[nH]cc1CC2 | < 30
60 | CC(C)Cc1ccc(C(C)c2nnc(-c3cccc([N+](=O)[O-])c3)o2)cc1 (stereo not drawn) | 50
61 | CCOC(=O)C(C#N)Cc1c(C)c(C)c(C)c(C)c1C (stereo not drawn) | < 30
62 | COc1ccc(Nc2cc(=O)n(-c3ccccc3)c3c2c(=O)n(C)c(=O)n3C)cc1 | 60
63 | COc1ccc(C(=O)Nc2c(-c3cccc(C(F)(F)F)c3)c(C(F)(F)F)nn2C)cc1OC | < 30
64 | CC1(C)CC(=O)C=C(Sc2ccc(C#N)cc2[N+](=O)[O-])S1 | 50
65 | CN1c2ccccc2C(C)(C)C12C=Cc1c(ccc3ccccc13)O2 (stereo not drawn) | < 30
66 | O=C(CCSCc1ccc(Cl)cc1)Nc1ccc(Cl)cc1 | 60
67 | CC(C)(C)S(=O)(=O)/C(C#N)=C/N/N=C/c1ccccc1Cl | < 30
68 | Cc1cc(O)nc2c1c(C)nn2C | < 30
69 | COc1ccccc1NC(=O)Nc1nn(C)c2cccc(N(C)C)c12 | 60
70 | CCOC(=O)C(=CNc1csc(C)c1C(=O)OC)C(=O)OCC | 60
71 | Cc1ccc(S(=O)(=O)Nc2ccccc2Oc2ccccc2)cc1 | < 30
72 | CC(C)(C)NC(=O)CSc1nnc([C@H](Cc2ccccc2)NC(=O)OC(C)(C)C)o1 | 30
73 | Cc1onc(-c2ccccc2Cl)c1C(=O)Nc1cccc2cccnc12 | 60
74 | COc1ccc(C2C3CCc4ccccc4C3=NN2CCOC(=O)Nc2ccc(Cl)cc2)cc1 (stereo not drawn) | 60
75 | Cc1ccc(NC(=O)c2c(-c3ccccc3Cl)noc2C)cc1F | < 30
76 | C/C=N/N(c1ccccc1)c1cc(-c2ccc(OC)cc2)c(C#N)c(=O)[nH]1 | 60
77 | CCCCCc1ccc(S(=O)(=O)Nc2ccccc2C(=O)NCC2CC2)cc1 | 60
78 | CS(=O)(=NS(=O)(=O)c1ccc(Cl)cc1Cl)c1ccc(Cl)cc1 (stereo not drawn) | < 30
79 | CSc1scc(NC(=O)Nc2cccc(Cl)c2)c1S(=O)(=O)C(C)C | 60
80 | O=C1CC(c2ccccc2)CC(=O)N1c1ccc(Oc2ccc(Cl)cc2)cc1 | < 30
81 | CCOC(=O)C(=CNNS(=O)(=O)c1cc(C(F)(F)F)cc(C(F)(F)F)c1)C(=O)OCC | 40
82 | Cc1ccc(Cn2nc(C(=O)O/N=C(\N)c3cccc(C(F)(F)F)c3)cc2C)cc1 | < 30
83 | COc1cc2c(cc1OC)C(c1cccc(C)c1)N(C(=O)c1sc3ccccc3c1Cl)CC2 (stereo not drawn) | 40
84 | O=C(c1cccs1)N1CCCN(Cc2cccc3ccccc23)CC1 | 80

Row | SMILES | inhibition [%]
85 | NC(=O)c1sc(-c2ccc(Cl)cc2)cc1NS(=O)(=O)c1ccc(Cl)cc1 | 50
86 | O=S(=O)(CCN1CCC(n2cccc2)CC1)c1ccc(F)cc1 | 40
87 | O=C(Nc1cccc([N+](=O)[O-])c1)c1ccccc1O | 60
88 | CC(=O)Nc1ccc(S(=O)(=O)NNc2c(Cl)cncc2Cl)cc1Cl | 50
89 | COC(=O)C(O)(c1ccc(NC(=O)Nc2ccc(Cl)cc2)cc1)C(F)(F)F (stereo not drawn) | 50
90 | O=c1c(-c2ccccc2)c(O)c2cccc3c4ccccc4n1c23 | 90
91 | CCOC(=O)c1cc(Cl)ccc1OS(=O)(=O)c1ccc(NC(C)=O)cc1 | 50
92 | Cc1csc2ncnc(N3CCN(C(=O)Nc4ccc(OC(F)(F)F)cc4)CC3)c12 | 50
93 | CCCCCCCCOc1ccc(S)nn1 | < 30
94 | CC(C)(C)OC(=O)N1CCN(c2ccc(NS(=O)(=O)c3ccc(Cl)cc3)cn2)CC1 | < 30
95 | COc1ccc(S(=O)(=O)N2CCC(O)(c3ccc(Cl)cc3)CC2)cc1OC | 40
96 | O=S(=O)(Cc1nc2ccc(Cl)cc2s1)CS(=O)(=O)Nc1nc2ccc(Cl)cc2s1 | 70
97 | COc1ccc2c(c1)CC/C(=C\c1ccc(Cl)cc1Cl)C2=O | 60
98 | CC(=O)CC(O)c1ccncc1 (stereo not drawn) | < 30
99 | c1ccc2c(CN3CCN(Cc4ccc5c(c4)OCO5)CC3)c[nH]c2c1 | 60
100 | C=C(C(=O)OC)C(O)c1ccc(Br)cc1 (stereo not drawn) | 60
101 | CN(C)c1cc(-c2cc(Cl)sc2Cl)oc(=O)c1Cl | < 30
102 | O=C(CSc1nccc(-c2cc(-c3ccc(Cl)cc3Cl)no2)n1)Nc1ccc(Cl)cc1 | 30
103 | CC(=O)C(C#N)c1nc(-c2ccc(F)cc2)cs1 (stereo not drawn) | 70
104 | Cc1nc(N/C=N/O)c(Br)cc1Br | 30
105 | CC(=O)C(C#N)c1nc(-c2ccc(Cl)c(C)c2)cs1 (stereo not drawn) | 70
106 | COc1ccc(CCNC(=O)c2sc3ccccc3c2Cl)cc1OC | < 30
107 | Cc1onc(-c2c(Cl)cccc2Cl)c1/C=C1/C(=O)Nc2ccccc21 | 30
108 | CSc1nnc(CN2C(=O)CSc3ccc(C(F)(F)F)cc32)n1C | < 30
